Assay results: patent US12421212B2, “Substituted benzenecarboxamides as IL-17A modulators” (DiCE Alpha, Inc., priority 2019, dated 2025)

Target: T1, IL-17A/A (Homo sapiens, UniProt Q16552)
T1 construct: purchased Genscript Z03228
T1 sequence (Q16552 24-155): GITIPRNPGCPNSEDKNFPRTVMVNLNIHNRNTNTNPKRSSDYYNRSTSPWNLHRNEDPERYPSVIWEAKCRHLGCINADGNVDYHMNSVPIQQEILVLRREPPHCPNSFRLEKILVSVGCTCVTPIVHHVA
Assay: IL-17A/A HEK-Blue Cell Assay
Format: cell-based
Conditions: HEK-Blue IL-17A reporter cell line, SEAP readout at A630, 20 hours incubation with IL-17A/A, top concentration 10 uM, 1 uM or 0.3 uM; for IC50: read-out: IL-17A/A inhibition (pIC50) (converted)

SMILES | IC50 [nM] | IL-17A/A inhibition (pIC50)
CCn1nnnc1C(=O)N[C@H](C(=O)Nc1ccc([C@H](C)[C@@H](NC(=O)N(C)C2CC2)C(=O)N2CCN(C)[C@H](C)C2)cc1F)[C@H]1CC[C@H](C)CC1 [Compound 604] | < 10 | 
CCC(=O)N[C@@H](C(=O)N1C[C@@H](C)N(C)[C@@H](C)C1)[C@@H](C)c1ccc(NC(=O)[C@@H](NC(=O)c2nonc2CC)[C@H]2CC[C@H](C)CC2)c(F)c1 [Compound 452] | < 10 | 
CCC(=O)N[C@H](Cc1ccc(NC(=O)[C@@H](NC(=O)c2ccnn2CC)C2CCCCC2)c(F)c1)C(=O)N1CC(N(C)C)C1 [Compound 667] | 100 to 10000 | 
CCC(=O)N[C@@H](C(=O)N1CCN(C)CC1)[C@@H](C)c1ccc(NC(=O)C(NC(=O)c2ccnn2CC)C(CC)c2ccc(F)cc2)c(F)c1 (single isomer, unassigned) [Compound 555] | < 10 | 
CCC(=O)N[C@@H](C(=O)N1CCN(C)CC1)[C@@H](C)c1ccc(NC(=O)[C@@H](NC(=O)c2ccc(CNC(=O)COCC(=O)O)s2)C2CCCCC2)c(F)c1 [Compound 767] | 100 to 10000 | 
CCC(=O)N[C@H](Cc1ccc(NC(=O)[C@@H](NC(=O)c2ccnn2CC)[C@H]2CC[C@H](C(F)(F)F)CC2)c(F)c1)C(=O)N1CCN(C)CC1 [Compound 732] |  | X2a (compounds were evaluated up to 1 uM and did not inhibit activity by >80%, however they showed some activity at 1 uM (less than 80% and more than 20%))
CCc1nonc1C(=O)N[C@H](C(=O)Nc1ccc([C@H](C)[C@@H](NC(=O)N(C)C2CC2)C(=O)N2CCN(C)[C@H](C)C2)cc1F)[C@H]1CC[C@H](C)CC1 [Compound 508] | < 10 | 
CC(C)n1nccc1C(=O)N[C@H](C(=O)Nc1ccc([C@H](C)[C@@H](NC(=O)NC2CC2)C(=O)N2CCN(C)CC2)cc1F)C1CCCCCC1 [Compound 339] | < 10 | 
CCn1nccc1C(=O)N[C@H](C(=O)Nc1ccc(C[C@@H](Nc2ncc(C#N)c(OC)n2)C(=O)N2CCN(C)CC2)cc1F)C1CCCCC1 [Compound 701] |  | X2a (compounds were evaluated up to 1 uM and did not inhibit activity by >80%, however they showed some activity at 1 uM (less than 80% and more than 20%))
CCC(=O)N[C@@H](C(=O)N1CCN(C)CC1)[C@@H](C)c1ccc(NC(=O)C(NC(=O)c2ccnn2C(C)C)C(C)c2ccc(F)cc2)c(F)c1 (stereo partly shown) [Compound 393] | 10 to 100 | 
CCC(=O)N[C@H](Cc1ccc(NC(=O)[C@@H](NC(=O)c2nonc2CC)[C@H]2CC[C@H](C)CC2)c(F)c1)C(=O)N1CCN(C)[C@@H](C)C1 [Compound 462] |  | A (compounds having a pIC50 of greater than or equal 8 as A)
CCn1nccc1C(=O)N[C@H](C(=O)Nc1ccc([C@H](C)[C@@H](NC(=O)CC2CC2)C(=O)N2CCN(C)CC2)cc1F)C1CCCCC1 [Compound 307] | 10 to 100 | 
CCC(=O)N[C@@H](C(=O)NCC1(C)CC1)[C@@H](C)c1ccc(NC(=O)[C@@H](NC(=O)c2ccnn2CC)[C@H]2CC[C@H](C)CC2)c(F)c1 [Compound 346] | 10 to 100 | 
CCC(=O)N[C@@H](C(=O)N1C[C@@H](C)N(C)[C@H](C)C1)[C@@H](C)c1ccc(NC(=O)[C@@H](NC(=O)c2nonc2CC)[C@H]2CC[C@H](C)CC2)c(F)c1 [Compound 451] | < 10 | 
CCC(=O)N[C@H](Cc1ccc(NC(=O)[C@@H](NC(=O)c2ccnn2CC)C2CCCCC2)c(C)c1)C(=O)N1CCN(C)CC1 [Compound 766] | 100 to 10000 | 
CCC(=O)N[C@@H](C(=O)NC1CCOCC1)[C@@H](C)c1ccc(NC(=O)[C@@H](NC(=O)c2ccnn2CC)C2CCCCC2)c(F)c1 [Compound 360] | 10 to 100 | 
CCC(=O)N[C@@H](C(=O)N1CCN(C)CC1)[C@@H](C)c1ccc(NC(=O)[C@@H](NC(=O)C(F)(F)C2CCOCC2)[C@H]2CC[C@H](C)CC2)c(F)c1 [Compound 660] |  | X3a (compounds were evaluated up to 0.3 uM and did not inhibit activity by >80%, however they showed some activity at 0.3 uM (less than 80% and more than 20%))
CCn1nccc1C(=O)N[C@H](C(=O)Nc1ccc([C@H](C)[C@@H](NC(=O)c2cc(C)on2)C(=O)N2CCN(C)CC2)cc1F)C1CCCCC1 [Compound 687] | 100 to 10000 | 

Second part, led by results:

IC50 [nM] | SMILES | IL-17A/A inhibition (pIC50)
10 to 100 | CCC(=O)N[C@@H](C(=O)N1CCS(=O)(=O)CC1)[C@@H](C)c1ccc(NC(=O)[C@@H](NC(=O)c2ccnn2CC)[C@H]2CC[C@H](C)CC2)c(F)c1 [Compound 392] | 
10 to 100 | CCC(=O)N[C@@H](C(=O)N1CCN(C)CC1)[C@@H](C)c1ccc(NC(=O)[C@@H](NC(=O)c2nonc2OC)[C@H]2CC[C@H](C)CC2)c(F)c1 [Compound 551] | 
10 to 100 | CCc1nonc1C(=O)N[C@H](C(=O)Nc1ccc([C@H](C)[C@@H](NC(=O)C(C)(F)F)C(=O)N2CCN(C)CC2)cc1F)[C@H]1CC[C@H](C)CC1 [Compound 501] | 
10 to 100 | CCC(=O)N[C@@H](C(=O)N1CCN(C)CC1)[C@@H](C)c1ccc(NC(=O)[C@@H](NC(=O)c2ccnn2CC)C2CCCCC2)c(F)c1 [Compound 229] | 
< 10 | CCC(=O)N[C@@H](C(=O)N1CCN(C)CC1)[C@@H](C)c1ccc(NC(=O)[C@@H](NC(=O)C(F)(F)c2cnn(CC)c2)[C@H]2CC[C@H](C)CC2)c(F)c1 [Compound 523] | 
< 10 | CCc1nonc1C(=O)N[C@H](C(=O)Nc1ccc([C@H](C)[C@@H](NC(=O)C(C)C)C(=O)N2CCN(C)CC2)cc1F)[C@H]1CC[C@H](C)CC1 [Compound 494] | 
< 10 | CCC(=O)N[C@@H](C(=O)N1CCN(C)CC1)[C@@H](C)c1ccc(NC(=O)[C@@H](NC(=O)c2ccnn2C(C)C)[C@H]2CC[C@H](C)CC2)c(F)c1 [Compound 253] | 
< 10 | CCc1nonc1C(=O)N[C@H](C(=O)Nc1ccc([C@H](C)[C@@H](NC(=O)NC2CC2)C(=O)N2CCN(C)CC2)cc1F)[C@H]1CC[C@H](C)CC1 [Compound 517] | 
10 to 100 | CCn1nccc1C(=O)N[C@H](C(=O)Nc1ccc([C@H](C)[C@@H](NC(=O)[C@@H](C)F)C(=O)N2CCN(C)CC2)cc1F)[C@H]1CC[C@H](C)CC1 [Compound 470] | 
10 to 100 | CCc1nonc1C(=O)N[C@H](C(=O)Nc1ccc([C@H](C)[C@@H](NC(=O)c2cccnc2OC)C(=O)N2CCN(C)CC2)cc1F)[C@H]1CC[C@H](C)CC1 [Compound 576] | 
< 10 | CCC(=O)N[C@@H](C(=O)N1CCN(C)CC1)[C@@H](C)c1ccc(NC(=O)[C@@H](NC(=O)C(F)(F)c2cccc(C#N)c2)[C@H]2CC[C@H](C)CC2)c(F)c1 [Compound 282] | 
10 to 100 | CCC(=O)N[C@@H](C(=O)N1CCC(C)(O)CC1)[C@@H](C)c1ccc(NC(=O)[C@@H](NC(=O)c2ccnn2CC)[C@H]2CC[C@H](C)CC2)c(F)c1 [Compound 343] | 
< 10 | CCC(=O)N[C@@H](C(=O)N1CCN(C)CC1)[C@@H](C)c1ccc(NC(=O)[C@@H](NC(=O)C(F)(F)c2cncc(C#N)c2)C2CCCCCC2)c(F)c1 [Compound 261] | 
10 to 100 | CCC(=O)N[C@@H](C(=O)N1CCN(C)CC1)[C@@H](C)c1ccc(NC(=O)[C@@H](NC(=O)C(F)(F)c2csc(C)c2)[C@H]2CC[C@H](C)CC2)c(F)c1 [Compound 276] | 
10 to 100 | CCC(=O)N[C@@H](C(=O)N1CCN(C)CC1)[C@@H](C)c1ccc(NC(=O)[C@@H](NC(=O)c2ccnn2CC)[C@H]2CC[C@H](C)CC2)c(F)c1 [Compound 234] | 
< 10 | CC(C)n1nccc1C(=O)N[C@H](C(=O)Nc1ccc([C@H](C)[C@@H](NC(=O)c2ccnn2CC2CC2)C(=O)N2CCN(C)CC2)cc1F)[C@H]1CC[C@H](C)CC1 [Compound 329] | 
